The NIST ThermoML archive (doi:10.1021/acs.jced.5b00606)
Numbers after ± are expanded uncertainties.

Assays:
[1] = Molar enthalpy of transition or fusion; conditions: Crystal; Drop ice or diphenyl ether calorimetry
[2] = for vapor or sublimation pressure: Liquid, Transpiration method

c1cn2ccnc2cn1 [imidazo[1,2-a]pyrazine]
Conditions | Molar enthalpy of transition or fusion [kcal/mol]
[1] | 3.66 ± 0.621

[2]
Conditions | vapor or sublimation pressure [kPa]
369.6 K | 0.1641 ± 0.018
373.8 K | 0.2038 ± 0.022
379 K | 0.2643 ± 0.028
383 K | 0.34 ± 0.036
385.2 K | 0.373 ± 0.04
388.2 K | 0.4381 ± 0.047
390.2 K | 0.4952 ± 0.053
393.4 K | 0.5831 ± 0.062

Conditions | Triple point temperature [K]
[2], Crystal, DTA | 359.2 ± 1.3
